# Reference: PMC4893161, “The Dynamic Localization of Cytoplasmic Dynein in Neurons Is Driven by Kinesin-1” (Neuron, 2016)
# Experiments:
# [1] = test system: KLC1 TPR domain (KLC1^TPR); test: Fluorescence polarization binding to KLC1 TPR domain; conditions: 150 mM NaCl, pH 7.5, 20 °C
# Protocol: (§1) Measurements were performed as previously described ([Pernigo et al., 2013]) with modifications as listed in Supplemental Experimental Procedures. […]
# (§2) minutes with the addition of 15 µl of washed pre-equilibrated Protein-G Dynabeads. Beads were washed three times in IP buffer and then boiled in 50 µl 1X SDS-loading buffer. Samples were separated by SDS-PAGE and transferred to immobilon-PVDF membrane (Millipore) for western blotting. Primary antibodies listed above. HRP conjugated secondary antibodies were from Jackson. […]
# (§3) Fluorescence polarization measurements […]
# (§4) […] All fluorescence polarization (FP) measurements were carried out on a BMG Labtech PolarStar Omega plate reader at 20 °C by incubating 300 nM TAMRA-labeled peptides with His6-tagged KLC2TPR at increasing concentrations in 25 mM Hepes pH 7.5, 150 mM NaCl, 5 mM β-mercaptoethanol. […]
# (§5) Four mouse brains were homogenized in 16 ml of ice cold Homogenization buffer (10 mM HEPES pH 7.4, 0.32 M sucrose, 2 mM EDTA plus protease inhibitors) then centrifuged at 1000 g for 15 min at 4 °C to form supernatant ‘S1’ and pellet ‘P1’. […] Samples of S1-P3 were taken at each stage and protein content measured by BCA assay and normalized to 1 mg/ml with 10 µg loaded on gels. […] Protein concentration and turbidity of fractions was analyzed at 280 and 340 nm respectively in a SynergyMx plate reader (BioTek). […]
# [2] = molecular target: T1, KLC2 TPR domain (KLC2^TPR) (Mus musculus, UniProt O88448); test: Fluorescence polarization binding to KLC2 TPR domain; conditions: 150 mM NaCl, pH 7.5, 20 °C
# T1 construct: amino acids V218 to K480) was amplified from a mouse; made in house; host or cells: E. coli (inferred from the pET28a vector
# Protocol: as §1, §2, §3, §4, §5
# T1 sequence (O88448 217-478 limits assumed): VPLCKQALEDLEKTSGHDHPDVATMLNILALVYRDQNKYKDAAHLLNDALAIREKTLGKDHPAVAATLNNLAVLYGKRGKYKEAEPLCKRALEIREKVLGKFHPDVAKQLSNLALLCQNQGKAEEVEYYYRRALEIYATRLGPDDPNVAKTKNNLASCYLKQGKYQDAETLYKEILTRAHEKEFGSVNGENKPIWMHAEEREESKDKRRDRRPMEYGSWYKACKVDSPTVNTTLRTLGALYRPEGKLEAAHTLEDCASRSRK
substance,measurement,setting,value
"TAMRA-TRTLQWDTDPS [WD2^pept, peptide centered on the second tryptophan motif of DIC1]",interaction with KLC1 TPR,[1],did not show an interaction
same,interaction with KLC2 TPR,[2],did not show an interaction
